Experiments:
SfruOR13 = tested on: T1, SfruOR13; test: two-electrode voltage clamp, Xenopus oocytes co-expressing SfruOR13/ORco, dose-response; format: cell-based, Spodoptera frugiperda
T1 construct: gene OR13; full-length ORF; with SfruORco

SfruOR16 = tested on: T2, SfruOR16; test: two-electrode voltage clamp, Xenopus oocytes co-expressing SfruOR16/ORco, dose-response; format: cell-based, Spodoptera frugiperda
T2 construct: gene OR16; full-length ORF; with SfruORco

EC50 (SfruOR13) | EC50 (SfruOR16) | Structure (SMILES)
6.08 µM | – | CCCC/C=C\CCCCCCCCOC(C)=O [Z9-14:OAc]
– | 16.9 µM | CCCC/C=C\CCCCCCCCO [Z9-14:OH, (Z)-9-tetradecen-1-ol]

— article PMC7143582, “Functional Characterization of Sex Pheromone Receptors in the Fall Armyworm (Spodoptera frugiperda)” (Insects, 2020)
